A short description of one series: in vivo. Format: in vivo. From the text:
Completed toxicology studies conducted with DMB include a single-dose toxicity study in Sprague-Dawley rats, escalating dose toxicity study in Beagle dogs, a repeat dose study of 14-Day duration in Sprague-Dawley rats and repeat-dose toxicity studies of 28-Day duration in Sprague-Dawley rats and Beagle dogs, and 26-Week studies in Sprague-Dawley rats and Beagle dogs. […] Reproductive toxicity studies include two dose-range finding studies, one in Sprague-Dawley rats, the other in New Zealand white rabbits. DMB was administered once a day (QD) orally via gavage; doses are expressed as the sodium salt. In addition, an array of genotoxicity studies were conducted with DMB.
There were no abnormal macroscopic or microscopic observations associated with the elevated kidney or brain weights. These treatment-related findings were not considered adverse. The NOAEL for DMB administered to Sprague-Dawley rats for a minimum of 181 days was considered to be 500 mg/kg/day, whereas the NOEL for female Sprague-Dawley rats was 100 mg/kg/day.

The nature of series [1]: Dose range-finding embryo/fetal developmental toxicity in rabbits. Format: in vivo, New Zealand White rabbits. The procedure: DMB was administered orally by gavage to 4 groups of 8 time-mated female New Zealand White rabbits once daily from gestation Days 7 through 20 at dosage levels of 50, 150, 300 and 600 mg/kg/day. […] All findings at necropsy occurred sporadically in single females, with similar frequencies in the control group and/or in a non dose-related manner and were considered incidental and unrelated to administration of DMB. Mean fetal weight in the 600 mg/kg/day group was 8.6% lower than the control group. Fetal weights in the 50, 150 and 300 mg/kg/day groups and fetal survival and external morphology at all dosage levels were unaffected by test article administration.

The subject of the next series is fetal hemoglobin (HbF). Description: Phase 2 trial in sickle cell disease patients, HbF, total Hgb, fetal globin mRNA. It is filed as in vivo, human. The procedure:
A randomized, blinded dose-ranging Phase 1/2 clinical trial was performed in 24 US and Jamaican adult patients with sickle cell disease (including HbSS or S/β thalassemia). DMB was administered once daily for six week cycles of daily therapy with a 2 week treatment break between two cycles, then followed by a final 4 weeks without treatment. Three dose levels (10, 20, 30 mg/kg/day) were studied sequentially. Four out of 24 subjects were treated with placebo and 21 subjects were evaluable. Seven Patients (5 active/2 placebo) at 10 mg/kg, 6 patients (5 active/1 placebo) at 20 mg/kg, and 9 patients (7 active/1 placebo) at 30 mg/kg were randomized in the study. Patients ranged in age from 14 to 56 with a median age of 31 and were comprised of […]. Patients were followed for hematologic parameters focusing on fetal hemoglobin (HbF). HbF was measured by a Waters Empower 32 HPLC system with a Synchropak CM-300 column.

The values that follow come from US8618068B2, “Methods and low dose regimens for treating red blood cell disorders” (priority 2009, dated 2013).

The NOAEL is the highest tested level that showed no adverse finding.

`CCC(C)(C)C(=O)[O-].[Na+]` [DMB, Sodium 2,2-dimethylbutyrate] came in with an NOAEL at 181 days in “in vivo” (both sexes, rat, in vivo, minimum of 181 days, oral) of 500 mg/kg/day. The “mortalities or clinical observations” value in the series “in vivo” (daily oral, 26 weeks) is “no test article-associated mortalities or clinical observations”. The compound also displayed an NOEL in the series “in vivo” (female, Sprague-Dawley, rat, in vivo, 181 days) of 100 mg/kg/day. For the same compound, in “in vivo” (rat, in vivo), the adverse effects entry was “no adverse effects”. The “mean absolute and relative liver weights” value in “in vivo” (rat, in vivo, 500 mg/kg/day) was “associated increases”. Also, the “maternal body weight gains and food consumption” value in series [1] (300 mg/kg/day) is “Reduced mean maternal body weight gains and corresponding reduced mean food consumption”. In addition, the “Mean fetal weight lower than the control group” value in series [1] (600 mg/kg/day) was 8.6%. Besides, the “acceptability of dosage for a definitive embryo/fetal development study” value in series [1] (600 mg/kg/day, maternal and embryo/fetal toxicity) is on record as “considered unacceptable”. Moreover, the “maternal or fetal test article-related effects” value in series [1] (50 and 150 mg/kg/day) was “no maternal or fetal test article-related effects”. Besides, the maternal macroscopic findings result in series [1] (any dosage level) is recorded as “No remarkable maternal macroscopic findings”. Also, in series [1] (rabbit, in vivo), the “fetal weights (50, 150, 300 mg/kg/day), fetal survival and external morphology (all dosage levels)” value is given as “unaffected”. In addition, the “responding subjects in whom lactate dehydrogenase (LDH) declined” value with fetal hemoglobin (HbF) (30 mg/kg doses) is reported as 4 of 5. Besides, in the series with fetal hemoglobin (HbF) (Day 97), the “dose level with the largest increase in HbF” value was 30 mg/kg and the “dose level with the largest increase in total Hgb” value was found to be 30 mg/kg. Moreover, the “change in percent HbF at Day 97” value in the series with fetal hemoglobin (HbF) (all 3 DMB dose groups, compared to a decrease in placebo) is on record as “median increases”. In addition, the “change in absolute HbF at Day 97” value in the series with fetal hemoglobin (HbF) (all three DMB dose groups) is on record as “Median increases”. For the same compound, the “change in total Hgb at Day 97” value with fetal hemoglobin (HbF) (all three DMB dose groups, compared to a decrease in placebo) is on record as “median increases”. For the same compound, the “percentage of F-cells and percentage of fetal hemoglobin” value with fetal hemoglobin (HbF) (in some instances (FIG. 22, 10 mg/kg)) is given as “increased throughout the treatment period”.
